We go through ten molecules from patent US6572865B1, “Mycobacterium tuberculosis DNA sequences encoding immunostimulatory peptides and methods for using same” (priority 1995, dated 2003).

For experiment [1], the system named is T-cells from tuberculin-positive people. The experiment is classed as cell-based, human.
The subject of the next experiment is immune T-cells. The experiment is classed as cell-based, mice. To be noted: Table 2; background subtracted; up to ten μg fusion peptide.
[2] abbreviates: 5×10^5 mononuclear cells, up to 1 μg/mL peptide or up to 50 ng/mL PhoA fusion protein.
Where [3] appears, read: up to 1 μg/mL peptide or up to 50 ng/mL PhoA fusion protein, background 103.3.

Where two headings read alike, the source gives them in different places.

As for “EYSRFVGDVFGAPLAME [CD-2/1/96/10, synthetic peptide from AciI#2-827]”, the “Concentration of INF-γ” value in experiment [1] (setting [2]) came to 134.0 pg/mL. The “Concentration of INF-γ minus background” value in experiment [1] (setting [3]) is 30.7 pg/mL.
In the same order, the values of “GKTYDAYFTDAGGITPG [HPI1-3/2, synthetic peptide from HinP#1-3]” are 136.3 pg/mL and 23.0 pg/mL.
Turning to “GRAELSSIVVLLTNNTA [CD-2/1/96/14, synthetic peptide from AciI#2-827]”, the “Concentration of INF-γ” value in experiment [1] (setting [2]) came out at 310.2 pg/mL. The “Concentration of INF-γ minus background” value in experiment [1] (setting [3]) is listed as 206.9 pg/mL.
“PhoA control: PhoA protein employed as a negative control [reference compound]”: in experiment [1] (control at 10 μg/mL), the “Concentration of INF-γ” value turned out to be 26.7 pg/mL and the “Concentration of INF-γ minus background” value is 0 pg/mL.
Take “SRFVGDVFGAPLAMESL [CD-2/1/96/11, synthetic peptide from AciI#2-827]”: the “Concentration of INF-γ” value in experiment [1] (setting [2]) was 141.6 pg/mL. Further, the “Concentration of INF-γ minus background” value in experiment [1] (setting [3]) was 38.3 pg/mL.
As to “VTDNPAWYRLTKFFGKL [CD-2/1/96/1, synthetic peptide from AciI#2-827]”, the “Concentration of INF-γ” value in experiment [1] (setting [2]) amounted to 256.6 pg/mL. Further, in experiment [1] (setting [3]), the “Concentration of INF-γ minus background” value was 153.3 pg/mL.
In the same order, the values of “WSEYSRFVGDVFGAPLA [CD-2/1/96/9, synthetic peptide from AciI#2-827]” are 187.6 pg/mL and 84.3 pg/mL.
In the same order, the values of “YDAYFTDAGGITPGNSV [HPI1-3/3, synthetic peptide from HinP#1-3]” are 264.2 pg/mL and 160.9 pg/mL.

B1: AciI#3-243: AP-fusion clone; SEQ ID NO: 112; MTCY50.02 (protein)
chain: AGGCGACGGTTGGCACCACCACGAGTGAGTCAGGCAGGAGCCCCGCCACGTTGCGGACGGCGCGAATCTTCGCCTGTGGCTCACCGACTTTCCGCCCAACTTCAACGATCTTGCACATGGACGGCAAGAACGCCGAGGTCGCG
notes: AP-fusion clone; MTCY50.02
Regarding B1, the “INF: pg/mL of INF-γ produced using fusion to stimulate immune T-cells” value in the experiment with immune T-cells is listed as 2,857 pg/mL.

B2: AciI#2-874: AP-fusion clone; SEQ ID NO: 73; MTCY190.20 (protein)
chain: VMPSSIGLVVGSMLWRQINRLFGVRGLCWAAHCSTPLCAAVHGGRVVWAVGSRLGVLHGVPAGYGGRSNGGRRIDIVDQRPRAR
notes: AP-fusion clone; MTCY190.20
As for B2, the “INF: pg/mL of INF-γ produced using fusion to stimulate immune T-cells” value in the experiment with immune T-cells is 2,171 pg/mL.
